This assay concerns BDF1 mice, B16 melanoma ip, median survival T/C. Put plainly: NCI In Vivo Anticancer Drug Screen. Data for tumor model B16 Melanoma (intraperitoneal) in B6D2F1 (BDF1) mice. The note with it: endpoint: median survival time, higher = longer survival. The gist of the method:
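In this screen, activity was judged from survival or tumor size in treated versus vehicle-treated tumor-bearing mice, reported as T/C.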

The mark [1] stands for this setting: dose: 12.5 mg/kg/injection, schedule: Q01DX009 (ip), vehicle: water.
Where [2] appears, read: dose: 25.0 mg/kg/injection, schedule: Q01DX009 (ip), vehicle: water.
[3] abbreviates: dose: 12.5 mg/kg/injection, schedule: Q01DX009 (ip), vehicle: saline with Tween-80.
Where [4] appears, read: dose: 25.0 mg/kg/injection, schedule: Q01DX009 (ip), vehicle: saline with Tween-80.
Setting [5] is: dose: 50.0 mg/kg/injection, schedule: Q01DX009 (ip), vehicle: saline with Tween-80.
[6] abbreviates: dose: 100.0 mg/kg/injection, schedule: Q01DX009 (ip), vehicle: saline with Tween-80.
[7] abbreviates: dose: 25.0 mg/kg/injection, schedule: Q01DX009 (ip), vehicle: Klucel (hydroxypropylcellulose) (HPC).
Setting [8] is: dose: 50.0 mg/kg/injection, schedule: Q01DX009 (ip), vehicle: Klucel (hydroxypropylcellulose) (HPC).
Where [9] appears, read: dose: 100.0 mg/kg/injection, schedule: Q04DX003 (ip), vehicle: Klucel (hydroxypropylcellulose) (HPC).
Setting [10] is: dose: 100.0 mg/kg/injection, schedule: Q01DX009 (ip), vehicle: Klucel (hydroxypropylcellulose) (HPC).
Setting [11] is: dose: 200.0 mg/kg/injection, schedule: Q01DX009 (ip), vehicle: Klucel (hydroxypropylcellulose) (HPC).

Values joined by “and” are separate entries in the source; they are usually repeats but may differ in a detail not shown here. Identical values can stand only once. Toxic doses and inconclusive results are not listed.

As to `NC(=O)CCC(N)C(=O)O.[Cl-].[Cl-].[Cl-].[Cl-].[Pt+2]` (configuration not stated), the T/C runs as follows: (dose: 1.56 mg/kg/injection, schedule: Q01DX009 (ip), vehicle: water) 110 % of control; (dose: 3.13 mg/kg/injection, schedule: Q01DX009 (ip), vehicle: water) 110 % of control; under setting [1], 120 % of control; under setting [2], 112 % of control.

As to `CCC1(O)CC2c3ccccc3CCN2CC1CC(C)C` (configuration not stated), the T/C was 104 % of control (dose: 0.19 mg/kg/injection, schedule: Q01DX009 (ip), vehicle: saline); 111 % of control (dose: 0.39 mg/kg/injection, schedule: Q01DX009 (ip), vehicle: saline); 109 % of control (dose: 0.78 mg/kg/injection, schedule: Q01DX009 (ip), vehicle: saline); 112 % of control (dose: 1.56 mg/kg/injection, schedule: Q01DX009 (ip), vehicle: saline); 112 % of control (dose: 3.12 mg/kg/injection, schedule: Q01DX009 (ip), vehicle: saline).

As for `CC(=O)CC(C)=O.CC(=O)CC(C)=O.O=N[O-].O=N[O-].[Co]`, the T/C by setting is: under setting [3], 96 % of control; under setting [4], 103 % of control; under setting [5], 91 % of control.

For the molecule `COc1cc(NC(=O)CN(CCCl)CCCl)cc(OC)c1OC`, the T/C under setting [6] is 170 % of control and the T/C (dose: 400.0 mg/kg/injection, schedule: Q01DX009 (ip), vehicle: saline with Tween-80) was 161 % of control.

As to `C[n+]1ccccc1/C=C/c1cccc([N+](=O)[O-])c1`, the T/C by setting is: (dose: 5.0 mg/kg/injection, schedule: Q01DX009 (ip), vehicle: saline with Tween-80) 110 % of control; (dose: 5.0 mg/kg/injection, schedule: Q04DX003 (ip), vehicle: saline with Tween-80) 105 % of control; (dose: 10.0 mg/kg/injection, schedule: Q01DX009 (ip), vehicle: saline with Tween-80) 100 % of control; (dose: 20.0 mg/kg/injection, schedule: Q01DX009 (ip), vehicle: saline with Tween-80) 100 % of control; (dose: 20.0 mg/kg/injection, schedule: Q04DX003 (ip), vehicle: saline with Tween-80) 89 % of control.

`COc1cccc2c1C(=O)c1c(O)c3c(c(O)c1C2=O)C[C@@](O)(/C(CO)=N/NC(=O)c1ccc(Cl)c(Cl)c1)C[C@@H]3OC1CC(N)C(O)C(C)O1` (some centres not stated): the T/C (dose: 2.5 mg/kg/injection, schedule: Q01DX001 (ip), vehicle: other) was 119 % of control; the T/C (dose: 10.0 mg/kg/injection, schedule: Q01DX001 (ip), vehicle: water) is 111 % of control and 252 % of control; the T/C (dose: 20.0 mg/kg/injection, schedule: Q01DX001 (ip), vehicle: other) was 247 % of control; the T/C (dose: 20.0 mg/kg/injection, schedule: Q01DX001 (ip), vehicle: water) was 102 % of control; the T/C (dose: 40.0 mg/kg/injection, schedule: Q01DX001 (ip), vehicle: water) is 250 % of control; the T/C (dose: 80.0 mg/kg/injection, schedule: Q01DX001 (ip), vehicle: water) is 105 % of control.

In the case of `CC(C)Nc1ncnc2[nH]ncc12`, the T/C is 96 % of control (dose: 1.0 mg/kg/injection, schedule: Q01DX009 (ip), vehicle: Klucel (hydroxypropylcellulose) (HPC)); 105 % of control (dose: 2.0 mg/kg/injection, schedule: Q01DX009 (ip), vehicle: Klucel (hydroxypropylcellulose) (HPC)); 94 % of control (dose: 4.0 mg/kg/injection, schedule: Q01DX009 (ip), vehicle: Klucel (hydroxypropylcellulose) (HPC)); 102 % of control (dose: 8.0 mg/kg/injection, schedule: Q01DX009 (ip), vehicle: Klucel (hydroxypropylcellulose) (HPC)).

Consider `Clc1ccc2nc(CBr)cnc2c1`, for which the T/C reads like this: (dose: 0.75 mg/kg/injection, schedule: Q01DX009 (ip), vehicle: saline with Tween-80) 97 % of control; (dose: 1.5 mg/kg/injection, schedule: Q01DX009 (ip), vehicle: saline with Tween-80) 86 % of control; (dose: 3.0 mg/kg/injection, schedule: Q01DX009 (ip), vehicle: saline with Tween-80) 97 % of control; (dose: 6.0 mg/kg/injection, schedule: Q01DX009 (ip), vehicle: saline with Tween-80) 88 % of control; (dose: 6.25 mg/kg/injection, schedule: Q01DX009 (ip), vehicle: saline with Tween-80) 87 % of control.

Turning to `CCOc1ccc(Br)cc1/C=N\N=C\c1cc(Br)ccc1OCC`, the T/C by setting is: (dose: 12.5 mg/kg/injection, schedule: Q01DX009 (ip), vehicle: Klucel (hydroxypropylcellulose) (HPC)) 100 % of control; under setting [7], 88 % of control and 105 % of control; under setting [8], 89 % of control and 94 % of control.

`O=C(CCN1CCCCC1)c1cccc([N+](=O)[O-])c1`: the T/C reads like this: (dose: 12.5 mg/kg/injection, schedule: Q04DX003 (ip), vehicle: saline) 105 % of control; (dose: 25.0 mg/kg/injection, schedule: Q04DX003 (ip), vehicle: saline) 113 % of control; (dose: 50.0 mg/kg/injection, schedule: Q04DX003 (ip), vehicle: saline) 100 % of control; under setting [9], 94 % of control.

With `COc1ccc(I)c([N+](=O)[O-])c1`, the T/C reads like this: under setting [8], 93 % of control; under setting [10], 93 % of control; under setting [11], 87 % of control.

In the case of `CCN(CC)CCOC(=O)CC1CCCCC1`, the T/C is, setting by setting: (dose: 50.0 mg/kg/injection, schedule: Q01DX009 (ip), vehicle: saline) 99 % of control; (dose: 100.0 mg/kg/injection, schedule: Q01DX009 (ip), vehicle: saline) 96 % of control; (dose: 200.0 mg/kg/injection, schedule: Q01DX009 (ip), vehicle: saline) 95 % of control.

Turning to `NC(N)=Nc1ccc(C(=O)Oc2ccc([N+](=O)[O-])cc2[N+](=O)[O-])cc1`, the T/C reads like this: under setting [7], 97 % of control; under setting [8], 91 % of control.

As for `O=c1[nH]/c(=C\c2ccc3c(c2)OCO3)c(=O)[nH]/c1=C\c1ccc2c(c1)OCO2`, the T/C was 113 % of control (dose: 12.5 mg/kg/injection, schedule: Q01DX009 (ip), vehicle: carboxymethylcellulose (CMC)); 100 % of control (dose: 25.0 mg/kg/injection, schedule: Q01DX009 (ip), vehicle: carboxymethylcellulose (CMC)); 106 % of control (dose: 50.0 mg/kg/injection, schedule: Q01DX009 (ip), vehicle: carboxymethylcellulose (CMC)); 86 % of control under setting [10].

For the molecule `O=S(=O)(O)c1ccc(Nc2ccccc2)cc1`, the T/C by setting is: under setting [10], 107 % of control and 97 % of control; under setting [11], 114 % of control and 88 % of control; (dose: 400.0 mg/kg/injection, schedule: Q01DX009 (ip), vehicle: Klucel (hydroxypropylcellulose) (HPC)) 107 % of control and 100 % of control.

`CC(=O)C(=O)C1=C2CCCN2CCc2cc3c(cc21)OCO3`: the T/C is, setting by setting: under setting [1], 93 % of control; under setting [2], 98 % of control; (dose: 50.0 mg/kg/injection, schedule: Q01DX009 (ip), vehicle: water) 117 % of control; (dose: 100.0 mg/kg/injection, schedule: Q01DX009 (ip), vehicle: water) 89 % of control.

For the molecule `CCc1nc2cc(C)c(C)cc2[nH]1`, the T/C by setting is: under setting [3], 106 % of control; under setting [4], 104 % of control; under setting [5], 104 % of control.

For `O=C1c2ccccc2C(=O)c2c(NCCN3CCCCC3)ccc(NCCN3CCCCC3)c21`, the T/C (dose: 16.0 mg/kg/injection, schedule: Q01DX009 (ip), vehicle: acid diluted with saline) was 107 % of control.

On to `[Cl][Pt+2][Cl].[NH-]c1cc(Cl)c(Cl)cc1[NH-]`, for which the T/C by setting is: (dose: 40.0 mg/kg/injection, schedule: Q01DX009 (ip), vehicle: saline with Tween-80) 114 % of control; (dose: 80.0 mg/kg/injection, schedule: Q01DX009 (ip), vehicle: saline with Tween-80) 118 % of control; (dose: 320.0 mg/kg/injection, schedule: Q01DX009 (ip), vehicle: saline with Tween-80) 113 % of control.

For the molecule `ClC1(c2ccccc2)c2ccc(Br)cc2-c2cc(Br)ccc21`, the T/C under setting [6] is 89 % of control and the T/C (dose: 200.0 mg/kg/injection, schedule: Q01DX009 (ip), vehicle: saline with Tween-80) is 92 % of control.

As to `CC(=O)Oc1cc(-c2c(C)cc(C)cc2C)c(OC(C)=O)cc1C`, the T/C was 93 % of control under setting [9]; 91 % of control (dose: 200.0 mg/kg/injection, schedule: Q04DX003 (ip), vehicle: Klucel (hydroxypropylcellulose) (HPC)); 97 % of control (dose: 400.0 mg/kg/injection, schedule: Q04DX003 (ip), vehicle: Klucel (hydroxypropylcellulose) (HPC)).

Source of the values: PubChem BioAssay AID192 (DTP/NCI, 2004).
